The text below walks through data of patent publication US20260114446A1, “Compositions, Methods and Devices for Control and Monitoring Insects” (Agriculture Victoria Services Pty Ltd, priority 2023, published 2026).

Holding throughout (type): in vivo
Test [1] relates to Carpophilus truncatus. Put plainly: Field experiment of pheromone lure septa in an almond orchard (Example 3), C. truncatus catches. Conditions: septa in bucket traps with co-attractant solution (45% ethanol, isopentyl alcohol) and Dichlorvos strip; 10 replicates; 6 weeks, samples fortnightly; p<0.001. Here is the method: A field experiment was designed to test the attractancy of the previously described C. truncatus Pheromone 2 under field conditions and the pheromonal (attractant) activity of newly identified Pheromone 3. […] All pheromones were tested together with a co-attractant mixture in the form of an aqueous ethanol and isopentyl alcohol solution, which acts synergistically to elicit a strong behavioural response in C. truncatus.
Pheromone test lures were loaded on white Precision Seal® rubber septa (8 mm OD, Sigma Aldrich product code: Z553913) with butylated hydroxytoluene used an antioxidant. The quantities of individual compounds applied on the septa were determined by SPME-GC-MS analyses of test septa at days 1 and 3 to produce the two pheromones in approximately equal ratios. The quantity of antioxidant was chosen based on the existing literature as 10% of the ratio of the dominant pheromone (Table 2). Hexane dilutions of the neat pheromones were prepared, and desired quantities loaded onto the septa. […]
The field trial was carried out from December 2021 in a commercial almond orchard located near Mildura, Victoria, Australia. […] Beetles present in different traps were identified and counted under a stereomicroscope. […]
Field data were analysed using a Generalized Linear Mixed Model (GLMM) fitted with a negative binomial distribution using the glmmTMB package (Brooks et al. 2019). […]

Test [2] has as its system Carpophilus truncatus. Put plainly: Two-week field trial of lure treatments (Example 4), C. truncatus catches. Conditions: 20 repeats per treatment, with co-attractant, high beetle populations. Here is the method:
(§1) A short trial was carried out over two weeks. Treatments were randomised and replicated in 10 tree rows with approximately 50 m spacing between traps (10 rows×2 treatments—20 repeats per treatment; 3 treatments of 20 repeats is 60 traps used). The treatments are shown in Table 3: Data was analysed in a similar way to Example 3 using GLMM with trap catches as response variable, lure treatment as fixed factor and row and column as random (spatial features). Turkey's adjusted post hoc tests for multiple comparisons of a family of three estimates. The results of the mixed model are: Wald χ2=[…], p=2.64 10^−14.

The subject of test [3] is other Carpophilus species. Put plainly: Two-week field trial of lure treatments (Example 4), catches of other Carpophilus species. Conditions: 20 repeats per treatment, with co-attractant. The method, then: as §1

For `C/C=C(C)/C=C(C)/C=C(C)/C=C/CC` [Phero 2, (E,E,E,E)-3,5,7-trimethyl-2,4,6,8-undecatetraene], the “C. truncatus beetle catches” value in test [1] is “caught significantly more beetles than the commercial tri-species septa”. As to `CCCCCCCCCCCCCC=O` [Phero 3, tetradecanal], in test [2], the “C. truncatus beetles caught” value is “caught significantly less C. truncatus and other Carpophilus species beetles than Phero 2 and Phero 2+Phero 3”. Further, in test [3], the “Other Carpophilus species beetles caught” value was “caught significantly less C. truncatus and other Carpophilus species beetles than Phero 2 and Phero 2+Phero 3”.
